Measurements taken from the supplement of paper PMC10307832.

Assays:
Test in all cases: relative viability (nuclei count vs DMSO), 5 days (fraction); higher = more cells survive
[1] = compound: C=CC(=O)Nc1cc(-n2c(=O)ccc3cnc4ccc(-c5ccc(NS(C)(=O)=O)cc5)cc4c32)ccc1C [BMX-IN-1] + C[C@@H](Oc1cc(-c2cnn(C3CCNCC3)c2)cnc1N)c1c(Cl)ccc(F)c1Cl [Crizotinib] (partner 1 µM)
In short: (§1)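 Each reported value is a median over duplicate plates. It expresses relative viability: treated-well nuclei count divided by vehicle-well nuclei count. Lung cancer cell lines in 1536-well plates were dosed by pin tool a day after seeding, alone with one drug or with a fixed anchor-drug dose plus five library-drug doses (not always all listed) in √10 steps, and nuclei were counted after 5 days.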

[2] = compound: C=CC(=O)N1CCC[C@@H](n2nc(-c3ccc(Oc4ccccc4)cc3)c3c(N)ncnc32)C1 [Ibrutinib] + Cc1nc(NC(=O)N2CCC[C@H]2C(N)=O)sc1-c1ccnc(C(C)(C)C(F)(F)F)c1 [Alpelisib] (partner 2 µM)
In short: as §1

[3] = compound: C=CC(=O)N1CCC[C@@H](n2nc(-c3ccc(Oc4ccccc4)cc3)c3c(N)ncnc32)C1 [Ibrutinib] + CC(C)C[C@H](NC(=O)[C@H](Cc1ccccc1)NC(=O)c1cnccn1)B(O)O [Bortezomib] (partner 0.002 µM)
In short: as §1

[4] = compound: C=CC(=O)Nc1cc(-n2c(=O)ccc3cnc4ccc(-c5ccc(NS(C)(=O)=O)cc5)cc4c32)ccc1C [BMX-IN-1] + Cc1nc(NC(=O)N2CCC[C@H]2C(N)=O)sc1-c1ccnc(C(C)(C)C(F)(F)F)c1 [Alpelisib] (partner 2 µM)
In short: as §1

Cell Line | relative viability ([1]; first compound 0.02 µM) | relative viability ([1]; first compound 0.2 µM) | relative viability ([1]; first compound 0.6325 µM) | relative viability ([1]; first compound 2 µM) | relative viability ([2]; first compound 0.01581 µM) | relative viability ([2]; first compound 0.05 µM) | relative viability ([2]; first compound 0.1581 µM) | relative viability ([2]; first compound 0.5 µM) | relative viability ([3]; first compound 0.01581 µM) | relative viability ([3]; first compound 0.05 µM) | relative viability ([3]; first compound 0.1581 µM) | relative viability ([3]; first compound 0.5 µM) | relative viability ([4]; first compound 0.02 µM) | relative viability ([4]; first compound 0.2 µM) | relative viability ([4]; first compound 0.6325 µM) | relative viability ([4]; first compound 2 µM) | relative viability ([2]; first compound 0.005 µM) | relative viability ([3]; first compound 0.005 µM)
NCI-H1915 | 1.28 | 0.964 | 0.946 | 0.977 | 1 | 1.06 | 1.07 | 1.05 | 0.996 | 1 | 1.05 | 0.979 | 1.08 | 1.03 | 1.04 | 1.13 |  | 
NCI-H1975 | 1.31 | 1.02 | 1.11 | 0.86 | 0.418 | 0.475 | 0.634 | 0.212 | 0.328 | 0.274 | 0.383 | 0.226 | 0.714 | 0.686 | 0.664 | 0.592 | 0.594 | 0.417
NCI-H1993 | 0.912 | 0.873 |  | 0.835 | 0.715 | 0.613 |  | 0.742 | 0.882 | 0.789 |  | 0.681 | 0.811 | 0.752 |  | 0.668 | 0.644 | 0.728
NCI-H2009 | 1.11 | 1.07 | 1.26 | 1.06 | 1.12 | 1.16 | 1.15 | 1.16 | 1 | 0.988 | 0.864 | 1.05 | 1.05 | 1.33 | 1.25 | 1.18 | 1.24 | 1.09
NCI-H2023 | 0.865 | 0.639 | 0.753 | 0.676 | 0.574 | 0.492 | 0.66 | 0.568 | 0.819 | 0.949 | 1.04 | 0.876 | 0.617 | 0.675 | 0.686 | 0.627 | 0.567 | 0.848
NCI-H2085 | 0.98 | 0.815 | 0.897 | 0.855 | 0.893 | 0.862 | 0.977 | 0.743 | 0.954 | 0.983 | 0.963 | 0.963 | 0.944 | 0.981 | 0.834 | 0.917 | 0.965 | 
NCI-H2087 | 0.902 | 1.02 | 1.01 | 1.03 |  | 1.19 |  | 1.19 | 0.741 | 0.851 | 0.844 | 0.889 | 1.12 | 1.28 | 1.32 | 1.24 | 1.09 | 0.755
NCI-H2126 | 1.2 | 1.06 | 1.15 | 1.1 | 0.7 | 0.769 | 0.763 | 0.606 | 1.13 | 1.12 | 1.11 | 1.1 | 0.763 | 0.748 | 0.827 | 0.77 |  | 
NCI-H2228 | 0.52 | 0.354 | 0.417 | 0.495 | 0.677 | 0.747 | 0.723 | 0.671 | 0.989 | 1.13 | 1.37 | 0.92 | 0.906 | 1.04 | 1.16 | 0.822 | 0.807 | 0.996
NCI-H2347 | 0.735 | 0.678 | 0.675 | 0.624 | 1.1 | 0.933 | 1.01 | 1.12 | 0.982 | 1.03 |  | 0.871 | 1.25 | 1.07 | 1.16 | 0.974 | 1 | 
NCI-H2405 | 0.939 | 0.892 | 0.903 | 0.886 | 0.713 | 0.83 |  | 0.706 | 0.977 | 0.948 | 0.856 | 0.767 | 0.816 | 0.755 | 0.747 | 0.766 | 0.706 | 1.07
NCI-H3122 | 0.3 | 0.27 | 0.271 | 0.3 | 0.743 | 0.873 | 0.583 | 0.711 | 1.05 | 1.08 | 0.955 | 1.02 | 0.815 | 0.879 | 0.657 | 0.812 | 0.686 | 1.07
PC-3 [JPC-3] | 1.34 | 1.03 | 1.03 | 0.99 | 0.946 | 0.941 | 1.04 | 0.517 | 0.805 | 0.831 | 0.826 | 0.635 | 1.17 | 1.06 | 1.09 | 1.09 | 1.03 | 0.837
PC-14 | 0.909 | 1.07 | 0.964 | 0.987 | 0.954 | 0.909 | 1.05 | 0.632 | 0.878 | 0.835 | 0.819 | 0.744 | 1.08 | 1.03 | 0.981 | 0.983 | 0.974 | 0.891
RERF-LC-KJ | 0.813 | 1.09 | 0.865 | 0.807 | 0.731 | 0.791 | 0.638 | 0.585 | 0.977 | 1.03 | 1 | 0.851 | 0.787 | 0.868 | 0.856 | 0.899 | 0.526 | 0.96
SK-LU-1 | 1.02 | 0.906 | 0.868 | 0.904 | 1.06 | 1.31 | 1.06 | 1.06 | 1.11 | 0.897 | 1.14 | 1.23 | 1 | 1.05 | 0.964 | 1.06 | 0.751 | 
SW 1573 | 0.869 | 0.97 | 0.879 | 0.767 | 0.807 | 0.844 | 0.749 | 0.811 | 0.97 | 0.8 | 0.992 | 0.984 | 0.913 | 0.882 | 0.8 | 0.798 | 0.632 | 0.771
UMC-11 | 0.821 | 0.579 | 0.633 | 0.578 | 1.01 | 0.958 | 1.01 | 0.964 | 0.637 | 0.898 | 0.654 | 0.736 | 1.16 | 1.28 | 1.08 | 0.98 | 0.957 | 0.664
